31 compounds from patent US8791107B2, “N-substituted oxazinopteridines and oxazinopteridinones” (Takeda Pharmaceutical Company Limited, priority 2011, dated 2014) can be followed below.

The target in this assay is T1, PI3Kδ (Homo sapiens, UniProt O00329).
T1 construct: The protein is full length and co-expressed with untagged PIK3R1; GST; purchased Invitrogen PV5274
T1 sequence (O00329 whole entry): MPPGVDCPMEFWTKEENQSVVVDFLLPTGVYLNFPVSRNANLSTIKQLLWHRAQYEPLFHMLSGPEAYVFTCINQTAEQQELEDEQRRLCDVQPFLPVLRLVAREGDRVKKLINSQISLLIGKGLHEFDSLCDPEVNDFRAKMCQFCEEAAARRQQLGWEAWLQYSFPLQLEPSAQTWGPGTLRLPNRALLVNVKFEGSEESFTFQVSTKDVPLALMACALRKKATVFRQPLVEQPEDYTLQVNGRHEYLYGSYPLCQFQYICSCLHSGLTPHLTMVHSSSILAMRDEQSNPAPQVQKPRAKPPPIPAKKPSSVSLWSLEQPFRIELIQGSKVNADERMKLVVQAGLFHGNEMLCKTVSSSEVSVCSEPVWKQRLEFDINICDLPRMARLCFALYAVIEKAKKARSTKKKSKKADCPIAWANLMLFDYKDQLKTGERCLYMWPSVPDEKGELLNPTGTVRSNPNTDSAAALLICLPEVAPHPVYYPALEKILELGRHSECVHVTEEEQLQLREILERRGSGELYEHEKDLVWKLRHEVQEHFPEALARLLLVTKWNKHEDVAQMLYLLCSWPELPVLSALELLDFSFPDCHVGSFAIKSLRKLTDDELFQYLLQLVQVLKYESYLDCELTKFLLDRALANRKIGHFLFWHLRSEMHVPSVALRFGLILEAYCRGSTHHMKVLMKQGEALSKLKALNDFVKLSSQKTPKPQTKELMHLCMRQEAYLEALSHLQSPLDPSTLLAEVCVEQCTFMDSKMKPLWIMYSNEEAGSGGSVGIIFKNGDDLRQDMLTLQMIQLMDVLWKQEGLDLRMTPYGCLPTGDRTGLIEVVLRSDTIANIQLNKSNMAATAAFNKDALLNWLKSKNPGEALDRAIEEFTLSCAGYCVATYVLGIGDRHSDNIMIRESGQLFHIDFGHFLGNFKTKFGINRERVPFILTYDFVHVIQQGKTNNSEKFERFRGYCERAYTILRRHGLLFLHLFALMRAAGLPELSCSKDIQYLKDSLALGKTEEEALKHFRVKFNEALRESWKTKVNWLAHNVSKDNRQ
T1 sequence (P27986 whole entry partner): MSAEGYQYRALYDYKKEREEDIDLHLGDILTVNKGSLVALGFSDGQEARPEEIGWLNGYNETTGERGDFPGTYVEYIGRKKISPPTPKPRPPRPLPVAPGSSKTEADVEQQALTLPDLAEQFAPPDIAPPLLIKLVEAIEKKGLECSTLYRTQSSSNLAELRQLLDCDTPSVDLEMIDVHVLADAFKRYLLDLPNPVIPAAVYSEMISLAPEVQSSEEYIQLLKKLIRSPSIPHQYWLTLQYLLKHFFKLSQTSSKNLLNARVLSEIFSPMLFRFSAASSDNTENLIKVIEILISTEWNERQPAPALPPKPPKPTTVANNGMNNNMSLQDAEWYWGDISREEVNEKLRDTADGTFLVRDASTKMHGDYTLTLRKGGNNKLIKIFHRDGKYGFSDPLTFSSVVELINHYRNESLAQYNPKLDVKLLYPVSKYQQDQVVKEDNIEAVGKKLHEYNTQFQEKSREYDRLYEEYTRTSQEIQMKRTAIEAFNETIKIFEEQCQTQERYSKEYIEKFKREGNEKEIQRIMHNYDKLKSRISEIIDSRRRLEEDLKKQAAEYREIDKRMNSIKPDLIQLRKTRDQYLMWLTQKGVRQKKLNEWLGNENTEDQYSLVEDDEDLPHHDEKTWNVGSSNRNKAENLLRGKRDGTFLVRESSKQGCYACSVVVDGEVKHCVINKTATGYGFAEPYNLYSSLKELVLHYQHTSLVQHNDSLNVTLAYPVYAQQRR
Description: PI3Kδ inhibition, modified PIK3CD Adapta TR-FRET assay. The format is biochemical. The settings on record: recombinant GST-tagged full length PIK3CD co-expressed with PIK3R1 (p85α); 2 μM ATP, 50 μM PIP2; read-out: PI3Kδ Inhibition (pIC50) (converted). The method in brief: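 Inhibition was derived from % conversion against positive and negative controls, with ADP read by Adapta Eu-antibody/tracer TR-FRET. Room-temperature reactions used GST-PIK3CD/p85α in HEPES pH 7.5 buffer (MgCl2, EGTA, NaCl, CHAPS, fresh DTT), 1% DMSO final and 12 concentrations. They were initiated by adding 2 μM ATP/50 μM PIP2 solution.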
Turning to `NC(=O)c1ccc(F)cc1CN1CC2COCCN2c2nc(-c3cccc4[nH]ccc34)ncc21` (stereo not shown) [Example 75, 2-((2-(1H-indol-4-yl)-6a,7,9,10-tetrahydro-[1,4]oxazino[3,4-h]pteridin-5(6H)-yl)methyl)-4-fluorobenzamide], the IC50 was 316 nM.
Under `O=C(CN1C[C@@H]2COCCN2c2nc(-c3cccc4[nH]ccc34)ncc21)NC1CCOCC1` [Example 205, (R)-2-(2-(1H-indol-4-yl)-6a,7,9,10-tetrahydro-[1,4]oxazino[3,4-h]pteridin-5(6H)-yl)-N-(tetrahydro-2H-pyran-4-yl)acetamide] stands 200 nM; under `CS(=O)(=O)c1ccc(CN2CC3COCCN3c3nc(-c4cnc(N)nc4)ncc32)c(Cl)c1` (stereo not shown) [Example 7, 5-(5-(2-chloro-4-(methylsulfonyl)benzyl)-5,6,6a,7,9,10-hexahydro-[1,4]oxazin[3,4-h]pteridin-2-yl)pyrimidin-2-amine], 7.94 nM.
In the case of `CS(=O)(=O)c1ccc(CN2C(=O)C3COCCN3c3nc(-c4cccc(S(N)(=O)=O)c4)ncc32)cc1` (stereo not shown) [Example 115, 3-(5-(4-(methylsulfonyl)benzyl)-6-oxo-5,6,6a,7,9,10-hexahydro-[1,4]oxazino[3,4-h]pteridin-2-yl)benzenesulfonamide], the IC50 was 631 nM.
The value for `c1cc(-c2ncc3c(n2)N2CCOCC2CN3Cc2nnnn2C2CC2)c2cc[nH]c2c1` (stereo not shown) [Example 36, 5-((1-cyclopropyl-1H-tetrazol-5-yl)methyl)-2-(1H-indol-4-yl)-5,6,6a,7,9,10-hexahydro-[1,4]oxazino[3,4-h]pteridine] was 126 nM.
Turning to `CS(=O)(=O)c1ccc(CN2C(=O)C3COCCN3c3nc(-c4cnc5[nH]ccc5c4)ncc32)cc1` (stereo not shown) [Example 108, 5-(4-(methylsulfonyl)benzyl)-2-(1H-pyrrolo[2,3-b]pyridin-5-yl)-6a,7,9,10-tetrahydro-[1,4]oxazino[3,4-h]pteridin-6(5H)-one], the IC50 is 31.6 nM.
The value for `CNC(=O)Nc1ccc(-c2ncc3c(n2)N2CCOCC2C(=O)N3CCc2c(C)n[nH]c2C)cc1` (stereo not shown) [Example 94, 1-(4-(5-(2-(3,5-dimethyl-1H-pyrazol-4-yl)ethyl)-6-oxo-5,6,6a,7,9,10-hexahydro-[1,4]oxazino[3,4-h]pteridin-2-yl)phenyl)-3-methylurea] was 2.51 nM.
The value for `CS(=O)(=O)c1ccc(CN2CC3COCCN3c3nc(-c4cccc5[nH]ccc45)ncc32)c(Cl)c1` (stereo not shown) [Example 5, 5-(2-chloro-4-(methylsulfonyl)benzyl)-2-(1H-indol-4-yl)-5,6,6a,7,9,10-hexahydro-[1,4]oxazino[3,4-h]pteridine] was 10 nM; that for `Cc1c[nH]c2c(F)ccc(-c3ncc4c(n3)N3CCOCC3CN4Cc3ccc(S(C)(=O)=O)cc3)c12` (stereo not shown) [Example 16, 2-(7-fluoro-3-methyl-1H-indol-4-yl)-5-(4-(methylsulfonyl)benzyl)-5,6,6a,7,9,10-hexahydro-[1,4]oxazino[3,4-h]pteridine] was 6310 nM.
Under `Cc1nc(-c2cccc3[nH]ccc23)nc2c1N(Cc1ccc(S(C)(=O)=O)cc1)CC1COCCN21` (stereo not shown) [Example 26, 2-(1H-indol-4-yl)-4-methyl-5-(4-(methylsulfonyl)benzyl)-5,6,6a,7,9,10-hexahydro-[1,4]oxazino[3,4-h]pteridine] stands 251 nM.
On to `COCCNC(=O)CN1C[C@@H]2COCCN2c2nc(-c3cccc4[nH]ccc34)ncc21` [Example 204, (R)-2-(2-(1H-indol-4-yl)-6a,7,9,10-tetrahydro-[1,4]oxazino[3,4-h]pteridin-5(6H)-yl)-N-(2-methoxyethyl)acetamide], for which the IC50 was 158 nM.
The value for `O=C(Nc1ccc(-c2ncc3c(n2)N2CCOCC2C(=O)N3C2CCOCC2)cc1)NC1CC1` (stereo not shown) [Example 229, 1-cyclopropyl-3-(4-(6-oxo-5-(tetrahydro-2H-pyran-4-yl)-5,6,6a,7,9,10-hexahydro-[1,4]oxazino[3,4-h]pteridin-2-yl)phenyl)urea] was 31.6 nM; that for `CS(=O)(=O)Nc1ccc(-c2ncc3c(n2)N2CCOCC2C(=O)N3Cc2ccc(S(C)(=O)=O)cc2)cc1` (stereo not shown) [Example 102, N-(4-(5-(4-(methylsulfonyl)benzyl)-6-oxo-5,6,6a,7,9,10-hexahydro-[1,4]oxazino[3,4-h]pteridin-2-yl)phenyl)methanesulfonamide] was 200 nM.
The value for `O=C(CN1C[C@@H]2COCCN2c2nc(-c3cccc4[nH]ccc34)ncc21)Nc1ccncc1` [Example 203, (R)-2-(2-(1H-indol-4-yl)-6a,7,9,10-tetrahydro-[1,4]oxazino[3,4-h]pteridin-5(6H)-yl)-N-(pyridin-4-yl)acetamide] was 398 nM.
For `Cc1ccc(C(N)=O)c(CN2CC3COCCN3c3nc(-c4cccc5[nH]ccc45)ncc32)c1` (stereo not shown) [Example 228, 2-((2-(1H-indol-4-yl)-6a,7,9,10-tetrahydro-[1,4]oxazino[3,4-h]pteridin-5(6H)-yl)methyl)-4-methylbenzamide], the IC50 was 158 nM.
Under `c1cnc(CN2CC3COCCN3c3nc(-c4cccc5[nH]ccc45)ncc32)nc1` (stereo not shown) [Example 164, 2-(1H-indol-4-yl)-5-(pyrimidin-2-ylmethyl)-5,6,6a,7,9,10-hexahydro-[1,4]oxazino[3,4-h]pteridine] stands 79.4 nM.
The value for `CCc1cccc(N2C[C@@H]3COCCN3c3nc(-c4cccc5[nH]ccc45)ncc32)c1` [Example 183, (R)-5-(3-ethylphenyl)-2-(1H-indol-4-yl)-5,6,6a,7,9,10-hexahydro-[1,4]oxazino[3,4-h]pteridine] was 398 nM; that for `N#Cc1ccccc1N1C[C@@H]2COCCN2c2nc(-c3cccc4[nH]ccc34)ncc21` [Example 186, (R)-2-(2-(1H-indol-4-yl)-6a,7,9,10-tetrahydro-[1,4]oxazino[3,4-h]pteridin-5(6H)-yl)benzonitrile] was 50.1 nM.
The value for `O=C1Nc2cnc(-c3cccc4c3OCO4)nc2N2CCOCC12` (stereo not shown) [Example 151, 2-(benzo[d][1,3]dioxol-4-yl)-6a,7,9,10-tetrahydro-[1,4]oxazino[3,4-h]pteridin-6(5H)-one] was 5010 nM.
`Oc1cc2c(-c3ncc4c(n3)N3CCOCC3CN4)cccc2[nH]1` (stereo not shown) [Example 12, 4-(5,6,6a,7,9,10-hexahydro-[1,4]oxazino[3,4-h]pteridin-2-yl)-1H-indol-2-ol]: the IC50 was 7940 nM.
The value for `COC(=O)c1ccc(C)cc1CN1C[C@@H]2COCCN2c2nc(-c3cccc4[nH]ccc34)ncc21` [Example 165, (R)-methyl 2-((2-(1H-indol-4-yl)-6a,7,9,10-tetrahydro-[1,4]oxazino[3,4-h]pteridin-5(6H)-yl)methyl)-4-methylbenzoate] was 794 nM; that for `O=C(Cc1ccsc1)N1CC2COCCN2c2nc(-c3cccc4[nH]ccc34)ncc21` (stereo not shown) [Example 51, 1-(2-(1H-indol-4-yl)-6a,7,9,10-tetrahydro-[1,4]oxazino[3,4-h]pteridin-5(6H)-yl)-2-(thiophen-3-yl)ethanone] was 251 nM.
Under `O=C1Nc2cnc(-c3cccc4[nH]cnc34)nc2N2CCOCC12` (stereo not shown) [Example 152, 2-(1H-benzo[d]imidazol-4-yl)-6a,7,9,10-tetrahydro-[1,4]oxazino[3,4-h]pteridin-6(5H)-one] stands 501 nM; under `CC(C)(C)C(N)CCN1C[C@@H]2COCCN2c2nc(-c3cccc4[nH]ccc34)ncc21` (stereo partly drawn) [Example 210, 1-((R)-2-(1H-indol-4-yl)-6a,7,9,10-tetrahydro-[1,4]oxazino[3,4-h]pteridin-5(6H)-yl)-4,4-dimethylpentan-3-amine], greater than 10000 nM.
Under `O=C(CN1C[C@@H]2COCCN2c2nc(-c3ccccc3CO)ncc21)NCC1CCOCC1` [Example 215, (R)-2-(2-(2-(hydroxymethyl)phenyl)-6a,7,9,10-tetrahydro-[1,4]oxazino[3,4-h]pteridin-5(6H)-yl)-N-((tetrahydro-2H-pyran-4-yl)methyl)acetamide] stands 5010 nM; under `CS(=O)(=O)c1ccc(CN2C(=O)C3COCCN3c3nc(-c4cccc(NS(=O)(=O)C5CC5)c4)ncc32)cc1` (stereo not shown) [Example 120, N-(3-(5-(4-(methylsulfonyl)benzyl)-6-oxo-5,6,6a,7,9,10-hexahydro-[1,4]oxazino[3,4-h]pteridin-2-yl)phenyl)cyclopropanesulfonamide], 7940 nM; under `c1cc(-c2ncc3c(n2)N2CCOC[C@H]2CN3CCC2OCCO2)c2cc[nH]c2c1` [Example 194, (R)-5-(2-(1,3-dioxolan-2-yl)ethyl)-2-(1H-indol-4-yl)-5,6,6a,7,9,10-hexahydro-[1,4]oxazino[3,4-h]pteridine], 3.16 nM.
As for `CNC(=O)Nc1ccc(-c2ncc3c(n2)N2CCOC[C@H]2CN3CC(=O)NCC2CCOCC2)cc1` [Example 222, (R)-2-(2-(4-(3-methylureido)phenyl)-6a,7,9,10-tetrahydro-[1,4]oxazino[3,4-h]pteridin-5(6H)-yl)-N-((tetrahydro-2H-pyran-4-yl)methyl)acetamide], the IC50 was 31.6 nM.
In the case of `O=C(CN1C[C@@H]2COCCN2c2nc(-c3ccc(F)c(CO)c3)ncc21)NCC1CCOCC1` [Example 220, (R)-2-(2-(4-fluoro-3-(hydroxymethyl)phenyl)-6a,7,9,10-tetrahydro-[1,4]oxazino[3,4-h]pteridin-5(6H)-yl)-N-((tetrahydro-2H-pyran-4-yl)methyl)acetamide], the IC50 is 251 nM.
Under `Cc1ccc(S(=O)(=O)N2CC3COCCN3c3nc(-c4cccc5[nH]ccc45)ncc32)cc1` (stereo not shown) [Example 18, 2-(1H-indol-4-yl)-5-tosyl-5,6,6a,7,9,10-hexahydro-[1,4]oxazino[3,4-h]pteridine] stands 398 nM.
As to `CNC(=O)Nc1ccc(-c2ncc3c(n2)N2CCOCC2C(=O)N3Cc2ccc(S(C)(=O)=O)cc2)cc1` (stereo not shown) [Example 91, 1-methyl-3-(4-(5-(4-(methylsulfonyl)benzyl)-6-oxo-5,6,6a,7,9,10-hexahydro-[1,4]oxazino[3,4-h]pteridin-2-yl)phenyl)urea], the IC50 is 0.794 nM.
